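Step 1: Grow cells in 96-well plates. Step 2: Expose to compound for 48 hours at 5 concentrations. Step 3: Interpolate endpoints linearly; if unreached, use highest concentration. TGI denotes the concentration required for complete inhibition of growth.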
Experiments:
Assay in all cases: NCI-60 cell line screen, 48 h
A498 renal = test system: A498 renal
ACHN renal = test system: ACHN renal
OVCAR-4 ovarian = test system: OVCAR-4 ovarian
OVCAR-8 ovarian = test system: OVCAR-8 ovarian
SF-268 CNS = test system: SF-268 CNS
SK-MEL-2 melanoma = test system: SK-MEL-2 melanoma
SN12C renal = test system: SN12C renal
TK-10 renal = test system: TK-10 renal
U251 CNS = test system: U251 CNS
UACC-62 melanoma = test system: UACC-62 melanoma

## CC(=O)O[C@H]1C(=O)[C@@]2(C)[C@H]([C@H](OC(=O)c3ccoc3)[C@]3(O)C[C@H](OC(=O)[C@H](O)[C@@H](NC(=O)c4ccccc4)c4ccccc4)C(C)=C1C3(C)C)[C@]1(OC(C)=O)CO[C@@H]1C[C@@H]2O
A498 renal
  TGI: > 12.5 µM
ACHN renal
  TGI: > 12.5 µM
OVCAR-4 ovarian
  TGI: > 12.5 µM
OVCAR-8 ovarian
  TGI: > 12.5 µM
SF-268 CNS
  TGI: > 12.5 µM
SK-MEL-2 melanoma
  TGI: 0.696 µM
SN12C renal
  TGI: > 12.5 µM
TK-10 renal
  TGI: > 12.5 µM
U251 CNS
  TGI: > 12.5 µM
UACC-62 melanoma
  TGI: > 12.5 µM

## C=CCCC1(CC(Sc2ccccc2)P(=O)(c2ccccc2)c2ccccc2)OCCO1 (configuration not stated)
A498 renal
  TGI: > 10 µM
ACHN renal
  TGI: > 10 µM
OVCAR-4 ovarian
  TGI: > 10 µM
OVCAR-8 ovarian
  TGI: > 10 µM
SF-268 CNS
  TGI: > 10 µM
SK-MEL-2 melanoma
  TGI: > 10 µM
SN12C renal
  TGI: > 10 µM
TK-10 renal
  TGI: > 10 µM
U251 CNS
  TGI: > 10 µM
UACC-62 melanoma
  TGI: > 10 µM

## CC1(C)OC(=O)N(c2ccccc2)C12C=Cc1cc([N+](=O)[O-])ccc1O2 (configuration not stated)
A498 renal
  TGI: > 100 µM
ACHN renal
  TGI: > 100 µM
OVCAR-4 ovarian
  TGI: > 100 µM
OVCAR-8 ovarian
  TGI: > 100 µM
SF-268 CNS
  TGI: > 100 µM
SK-MEL-2 melanoma
  TGI: > 100 µM
SN12C renal
  TGI: > 100 µM
TK-10 renal
  TGI: > 100 µM
U251 CNS
  TGI: > 100 µM
UACC-62 melanoma
  TGI: > 100 µM

## N#Cc1c(-c2ccccc2)[nH]c2ccc(Cl)cc2c1=O
ACHN renal
  TGI: > 100 µM
OVCAR-4 ovarian
  TGI: > 100 µM
OVCAR-8 ovarian
  TGI: > 100 µM
SF-268 CNS
  TGI: > 100 µM
SK-MEL-2 melanoma
  TGI: 94.3 µM
SN12C renal
  TGI: > 100 µM
TK-10 renal
  TGI: 90.6 µM
U251 CNS
  TGI: 75.9 µM
UACC-62 melanoma
  TGI: > 100 µM

## COC(=O)CC1N=C(NC#N)N(CCc2c[nH]c3ccccc23)C1=O (configuration not stated)
ACHN renal
  TGI: > 100 µM
OVCAR-4 ovarian
  TGI: > 100 µM
OVCAR-8 ovarian
  TGI: > 100 µM
SF-268 CNS
  TGI: > 100 µM
SN12C renal
  TGI: > 100 µM
TK-10 renal
  TGI: > 100 µM
U251 CNS
  TGI: > 100 µM
UACC-62 melanoma
  TGI: > 100 µM

## CCOC(=O)C1C(=O)CC1(C)C (configuration not stated)
A498 renal
  TGI: > 10 µM
ACHN renal
  TGI: > 10 µM
OVCAR-4 ovarian
  TGI: > 10 µM
OVCAR-8 ovarian
  TGI: > 10 µM
SF-268 CNS
  TGI: > 10 µM
SK-MEL-2 melanoma
  TGI: > 10 µM
SN12C renal
  TGI: > 10 µM
TK-10 renal
  TGI: > 10 µM
U251 CNS
  TGI: > 10 µM
UACC-62 melanoma
  TGI: > 10 µM

## C(/C=C/Nc1ccc(Oc2ccccc2)cc1)=Nc1ccc(Oc2ccccc2)cc1
A498 renal
  TGI: 29.7 µM
ACHN renal
  TGI: 50.9 µM
OVCAR-4 ovarian
  TGI: 32.8 µM
OVCAR-8 ovarian
  TGI: 38.8 µM
SF-268 CNS
  TGI: 40.7 µM
SN12C renal
  TGI: 27.9 µM
TK-10 renal
  TGI: 34.7 µM
U251 CNS
  TGI: 33.2 µM

## CC(=O)OC1C(Oc2c(C)cc3c(c2O)[C@@H](C)CC[C@@H]3[C@@H](C)CCC=C(C)C)OCC(O)C1O (some centres not stated)
A498 renal
  TGI: 36.5 µM
ACHN renal
  TGI: 35.5 µM
OVCAR-8 ovarian
  TGI: 47.4 µM
SF-268 CNS
  TGI: 33.1 µM
SK-MEL-2 melanoma
  TGI: 45.2 µM
SN12C renal
  TGI: 32.2 µM
U251 CNS
  TGI: 32.3 µM
UACC-62 melanoma
  TGI: 34.9 µM

## Nc1nc(-c2ccccc2)cc(-c2ccc(OCc3ccccc3)cc2O)n1
A498 renal
  TGI: > 100 µM
ACHN renal
  TGI: > 100 µM
OVCAR-4 ovarian
  TGI: > 100 µM
OVCAR-8 ovarian
  TGI: > 100 µM
SF-268 CNS
  TGI: > 100 µM
SK-MEL-2 melanoma
  TGI: > 100 µM
SN12C renal
  TGI: > 100 µM
TK-10 renal
  TGI: 91 µM
U251 CNS
  TGI: > 100 µM
UACC-62 melanoma
  TGI: > 100 µM

## CC1=CCC(O)C=CC(C)C(O)C(C)C=C(C)C(=O)c2c(O)c(C)cc3c2C(=O)C(N)=C(NC(=O)/C=C\C=C/C=CC(C)C(O)CC1=O)C3=O (configuration not stated)
A498 renal
  TGI: > 100 µM
ACHN renal
  TGI: > 100 µM
OVCAR-4 ovarian
  TGI: > 100 µM
OVCAR-8 ovarian
  TGI: > 100 µM
SF-268 CNS
  TGI: > 100 µM
SK-MEL-2 melanoma
  TGI: > 100 µM
SN12C renal
  TGI: > 100 µM
TK-10 renal
  TGI: > 100 µM
U251 CNS
  TGI: > 100 µM
UACC-62 melanoma
  TGI: > 100 µM

## CN(C)CC1CCCC(CN(C)C)C1OC(=O)c1ccccc1 (configuration not stated)
A498 renal
  TGI: > 100 µM
ACHN renal
  TGI: > 100 µM
OVCAR-4 ovarian
  TGI: > 100 µM
OVCAR-8 ovarian
  TGI: > 100 µM
SF-268 CNS
  TGI: > 100 µM
SK-MEL-2 melanoma
  TGI: > 100 µM
SN12C renal
  TGI: > 100 µM
TK-10 renal
  TGI: > 100 µM
U251 CNS
  TGI: > 100 µM
UACC-62 melanoma
  TGI: > 100 µM

## CCN(CC)C1CC(O[C@H]2C[C@](O)(C(=O)CO)Cc3c(O)c4c(c(O)c32)C(=O)c2c(OC)cccc2C4=O)OC(C)C1O (some centres not stated)
A498 renal
  TGI: 0.0798 µM
ACHN renal
  TGI: 0.208 µM
OVCAR-4 ovarian
  TGI: 0.255 µM
OVCAR-8 ovarian
  TGI: 0.565 µM
SF-268 CNS
  TGI: 0.314 µM
SK-MEL-2 melanoma
  TGI: 0.193 µM
SN12C renal
  TGI: 1.25 µM
TK-10 renal
  TGI: 2.57 µM
U251 CNS
  TGI: 1.19 µM
UACC-62 melanoma
  TGI: 0.0968 µM

## CC(CC[C@@]1(C)C(=O)CCC2O[C@]21C)[C@H]1C[C@@H](c2ccoc2)OC1=O (some centres not stated)
A498 renal
  TGI: > 100 µM
ACHN renal
  TGI: 48 µM
OVCAR-4 ovarian
  TGI: 55.3 µM
SF-268 CNS
  TGI: 94.6 µM
SK-MEL-2 melanoma
  TGI: > 100 µM
SN12C renal
  TGI: 79.9 µM
TK-10 renal
  TGI: 94.4 µM
U251 CNS
  TGI: > 100 µM
UACC-62 melanoma
  TGI: > 100 µM

## Cc1ccc2c(c1)CC1(Cc3ccccc3C1=O)C2=O (configuration not stated)
A498 renal
  TGI: > 100 µM
ACHN renal
  TGI: > 100 µM
OVCAR-4 ovarian
  TGI: > 100 µM
OVCAR-8 ovarian
  TGI: > 100 µM
SF-268 CNS
  TGI: > 100 µM
SN12C renal
  TGI: > 100 µM
TK-10 renal
  TGI: > 100 µM
U251 CNS
  TGI: > 100 µM
UACC-62 melanoma
  TGI: > 100 µM

## COc1cc(OC)c2c(C)cc(=O)oc2c1
A498 renal
  TGI: 76.5 µM
ACHN renal
  TGI: > 100 µM
OVCAR-4 ovarian
  TGI: > 100 µM
OVCAR-8 ovarian
  TGI: > 100 µM
SF-268 CNS
  TGI: > 100 µM
SK-MEL-2 melanoma
  TGI: > 100 µM
SN12C renal
  TGI: > 100 µM
TK-10 renal
  TGI: > 100 µM
U251 CNS
  TGI: > 100 µM
UACC-62 melanoma
  TGI: > 100 µM

## O=C(NC(Cc1ccccc1)(Cc1ccc(O)cn1)C(=O)O)c1ccccc1 (configuration not stated)
ACHN renal
  TGI: > 100 µM
OVCAR-4 ovarian
  TGI: > 100 µM
OVCAR-8 ovarian
  TGI: > 100 µM
SF-268 CNS
  TGI: > 100 µM
SK-MEL-2 melanoma
  TGI: > 100 µM
TK-10 renal
  TGI: > 100 µM
U251 CNS
  TGI: > 100 µM
UACC-62 melanoma
  TGI: > 100 µM

## O=C1c2ccccc2C(=O)N1CCCCNOCCCN1C(=O)c2ccccc2C1=O
A498 renal
  TGI: > 100 µM
ACHN renal
  TGI: > 100 µM
OVCAR-4 ovarian
  TGI: > 100 µM
OVCAR-8 ovarian
  TGI: > 100 µM
SF-268 CNS
  TGI: > 100 µM
SN12C renal
  TGI: > 100 µM
TK-10 renal
  TGI: > 100 µM
U251 CNS
  TGI: > 100 µM
UACC-62 melanoma
  TGI: > 100 µM

## CCOC(C)O[C@H]1C(=O)OCC1(C)C (some centres not stated)
A498 renal
  TGI: > 100 µM
ACHN renal
  TGI: > 100 µM
OVCAR-4 ovarian
  TGI: > 100 µM
OVCAR-8 ovarian
  TGI: > 100 µM
SF-268 CNS
  TGI: > 100 µM
SK-MEL-2 melanoma
  TGI: > 100 µM
TK-10 renal
  TGI: > 100 µM
U251 CNS
  TGI: > 100 µM
UACC-62 melanoma
  TGI: > 100 µM

## Nc1nc(-[n+]2ccc(-c3ccncc3)cc2)nc(Cl)c1Cl
A498 renal
  TGI: > 100 µM
ACHN renal
  TGI: > 100 µM
OVCAR-4 ovarian
  TGI: > 100 µM
SF-268 CNS
  TGI: 34.6 µM
SK-MEL-2 melanoma
  TGI: > 100 µM
SN12C renal
  TGI: 42.5 µM
TK-10 renal
  TGI: 59 µM
U251 CNS
  TGI: > 100 µM
UACC-62 melanoma
  TGI: > 100 µM

## CCOC(=O)c1ccc(NCc2ccc3oc(=O)c(-c4ccccc4)nc3c2)cc1
A498 renal
  TGI: > 100 µM
ACHN renal
  TGI: > 100 µM
OVCAR-4 ovarian
  TGI: 54.1 µM
OVCAR-8 ovarian
  TGI: 65 µM
SF-268 CNS
  TGI: > 100 µM
SK-MEL-2 melanoma
  TGI: > 100 µM
SN12C renal
  TGI: > 100 µM
U251 CNS
  TGI: > 100 µM
UACC-62 melanoma
  TGI: > 100 µM

## CSc1cc(Cl)c(C)cc1S(=O)(=O)NC(=O)NNc1cccc(C(F)(F)F)n1
A498 renal
  TGI: > 100 µM
ACHN renal
  TGI: > 100 µM
OVCAR-4 ovarian
  TGI: > 100 µM
OVCAR-8 ovarian
  TGI: > 100 µM
SF-268 CNS
  TGI: > 100 µM
SK-MEL-2 melanoma
  TGI: > 100 µM
SN12C renal
  TGI: > 100 µM
U251 CNS
  TGI: > 100 µM

## N#C[C@@H](c1ccccn1)c1ncccc1[N+](=O)[O-]
A498 renal
  TGI: > 100 µM
ACHN renal
  TGI: > 100 µM
OVCAR-4 ovarian
  TGI: > 100 µM
OVCAR-8 ovarian
  TGI: > 100 µM
SF-268 CNS
  TGI: > 100 µM
SK-MEL-2 melanoma
  TGI: > 100 µM
SN12C renal
  TGI: > 100 µM
U251 CNS
  TGI: > 100 µM
UACC-62 melanoma
  TGI: > 100 µM

From PubChem BioAssay (NCI)
